These results are taken from patent publication US20260207649A1, “LSD1 INHIBITOR AND PRMT6 INHIBITOR FOR USE IN THE TREATMENT OF A DISEASE ASSOCIATED WITH GAIN-OF-FUNCTION OF ANDROGEN RECEPTOR (AR) AND/OR WITH OVEREXPRESSION OF AN AR COACTIVATOR” (FONDAZIONE TELETHON ETS(30%), priority 2022, published 2026).

This data set relates to PRMT6. Kind of data set: Lentiviral shRNA knock-down tested in motor-neuron cell lines. It is filed as cell-based. To be noted: lentiviral transduction of motor-neuron cell lines. The procedure:
Transgenes to express shRNA against PRMT6 (shPRMT6 #1, SEQ ID NO: 232 and shPRMT6 #2, SEQ ID NO: 233) and the corresponding scramble were cloned into lentiviral constructs (pLKO.1-puro).
HEK293T cells were transfected by calcium phosphate with lentiviral vectors together with pCMV-dR8.91 (Delta 8.9) plasmids containing gag, pol, and rev genes and VSV-G envelope plasmid. At 16 hours post-transfection, medium was replaced with fresh medium, and 24 hours later it was collected, centrifuged at 1000×g for 10 minutes (to pellet and thus remove any cellular debris), filtered through 0.45-μm pores, and stored at −80° C. in aliquots. To quantify viruses, 10 μL of viral particles were lysed for 10 minutes at room temperature by adding an equal volume of 2× lysis buffer [0.25% Triton X-100, 50 mM KCl, 100 mM Tris-HCl pH 7.4, 40% glycerol, and 0.8 U/μL RNase inhibitor (RiboLock, Fermentas)]. Lysates were added to a single-step RT-PCR assay with 3.5 nM MS2 RNA (Roche) as template, 500 nM of each primer and hot-start Taq (Truestart Hotstart Taq, Fermentas), all in 20 mM Tris-Cl pH 8.3, 5 mM (NH4)2SO4, 20 mM KCl, 5 mM MgCl2, 0.1 mg/ml BSA, 1/20,000 SYBR Green I (Invitrogen, #S7563), and 200 µM dNTPs. […]

With “shPRMT6 #1: shRNA against PRMT6 in lentiviral construct pLKO.1-puro, caccggcauucugagcaucuu (CACCGGCAUUCUGAGCAUCUU)”, the knock-down efficiency result was “most efficient knock-down”.
